Source: ChEMBL document CHEMBL4732091, “Design, synthesis and biological evaluation of novel thiosemicarbazone-indole derivatives targeting prostate cancer cells” (Eur J Med Chem, 2021)
Activity calls are given as the source filed them. The rule behind the calls is not given here.

How the values were obtained:
PC-3 [1] = assay: Antiproliferative activity against human PC-3 cells assessed as reduction in colony formation at 12.5 to 50 nM measured after 6 days by crystal violet staining based colony assay; type: functional, cell-based; conditions: dose 12.5-50 nM, time 6.0 day
PC-3 [2] = assay: Induction of apoptosis in human PC-3 cells assessed as increase in p53 expression at 25 to 100 nM measured by Western blot assay; type: functional, cell-based; conditions: dose 25-100 nM
DU-145 [3] = assay: Cytotoxicity against human DU-145 cells assessed as cell viability pre-treated with SB203580 for 4 hrs followed by compound treatment and measured after 72 hrs by MTT assay; type: functional, cell-based
PC-3 [4] = assay: Induction of ROS generation in human PC-3 cells assessed as intracellular ROS level at 125 nM measured after 48 hrs by DCFH-DA staining based flowcytometry method (reference value: 55.2 %); type: functional
DU-145 [5] = assay: Induction of apoptosis in human DU-145 cells assessed as necrotic cells at 2 uM measured after 72 hrs by Annexin V-FITC/propidium iodide staining based flow cytometry method (reference value: 1.13 %); type: functional
[6] = Cytotoxicity against human WPMY-1 cell line cells assessed as inhibition of cell proliferation measured after 72 hrs by MTT assay; type: cell-based; conditions: WPMY-1, 72 h
DU-145 [7] = assay: Induction of ROS generation in human DU-145 cells assessed as intracellular ROS level at 3 uM measured after 48 hrs by DCFH-DA staining based flowcytometry method (reference value: 52 %); type: functional
PC-3 [8] = assay: Induction of ROS generation in human PC-3 cells assessed as intracellular ROS level at 250 nM pretreated with NAC followed by compound treatment measured after 48 hrs by DCFH-DA staining based flowcytometry method (reference value: 49.9 %); type: functional
PC-3 [9] = assay: Induction of apoptosis in human PC-3 cells assessed as increased cleaved caspase 9/3 expression at 25 to 100 nM measured by Western blot assay; type: functional, cell-based; conditions: dose 25-100 nM
PC-3 [10] = assay: Induction of apoptosis in human PC-3 cells assessed as late apoptotic cells at 50 nM measured after 72 hrs by Annexin V-FITC/propidium iodide staining based flow cytometry method (reference value: 1.01 %); type: functional
[11] = Toxicity in C57BL/6 mouse assessed as effect on heart at 2 mg/kg, IG measured after 2 weeks by hematoxylin and eosin staining based imaging analysis; type: organism-based; conditions: in vivo, po, 336 h
DU-145 [12] = assay: Induction of apoptosis in human DU-145 cells assessed as viable cells at 2 uM measured after 72 hrs by Annexin V-FITC/propidium iodide staining based flow cytometry method (reference value: 96.3 %); type: functional; conditions: read-out: Activity
DU-145 [13] = assay: Induction of apoptosis in human DU-145 cells assessed as necrotic cells at 0.5 uM measured after 72 hrs by Annexin V-FITC/propidium iodide staining based flow cytometry method (reference value: 1.13 %); type: functional
DU-145 [14] = assay: Induction of apoptosis in human DU-145 cells assessed as cell rounding at 0.5 to 2 uM measured after 72 hrs by Hoechst staining based fluorescence method; type: functional; conditions: dose 0.5-2 µM
DU-145 [15] = assay: Activation of MAPK signaling in human DU-145 cells assessed as increase in phosphorylated p38 (Thr 180/Tyr 182) at 125 to 500 nM measured by Western blot assay; type: cell-based; conditions: filed as activator, dose 125-500 nM
PC-3 [16] = assay: Induction of apoptosis in human PC-3 cells assessed as early apoptotic cells at 50 nM measured after 72 hrs by Annexin V-FITC/propidium iodide staining based flow cytometry method (Rvb 0.452 %); type: functional
DU-145 [17] = assay: Induction of apoptosis in human DU-145 cells assessed as late apoptotic cells at 2 uM measured after 72 hrs by Annexin V-FITC/propidium iodide staining based flow cytometry method (reference value: 1.77 %); type: functional
DU-145 [18] = assay: Induction of apoptosis in human DU-145 cells assessed as increased cleaved caspase 9/3 at 0.5 to 2 uM measured by Western blot assay; type: functional, cell-based; conditions: dose 0.5-2 µM
DU-145 [19] = assay: Induction of ROS generation in human DU-145 cells assessed as intracellular ROS level at 1.5 uM measured after 48 hrs by DCFH-DA staining based flowcytometry method (reference value: 52 %); type: functional

Cc1ccc(/C=N/NC(=S)Nc2ccc(C(=O)NCCc3c(C)[nH]c4ccccc34)cc2)nc1
inhibition (PC-3 [1]): Active
Activity (PC-3 [2]): Active
inhibition (DU-145 [3]): inactive
Activity (PC-3 [4]): 75.4%
Activity (DU-145 [5]): 7.23%
IC50 [6]: 19.5 µM
Activity (DU-145 [7]): 75.1%
Activity (PC-3 [8]): 74.5%
Activity (PC-3 [9]): Active
Activity (PC-3 [10]): 33.5%
Activity [11]: Non-Toxic
viability at 2 µM (DU-145 [12]): 43.8%
Activity (DU-145 [13]): 1.95%
Activity (DU-145 [14]): Active
Activity (DU-145 [15]): Active
Activity (PC-3 [16]): 5.6%
Activity (DU-145 [17]): 38.5%
Activity (DU-145 [18]): Active
Activity (DU-145 [19]): 71.3%
